Source: patent US9290511B2, “Thieno-pyrimidines, useful as potassium channel inhibitors” (XENTION LIMITED, priority 2011, dated 2016)

Target: T1, Kir3.1/3.4 (Rattus norvegicus, UniProt P48548+P63251)
T1 construct: expressed in transfected cells
T1 sequence (P63251 1-501): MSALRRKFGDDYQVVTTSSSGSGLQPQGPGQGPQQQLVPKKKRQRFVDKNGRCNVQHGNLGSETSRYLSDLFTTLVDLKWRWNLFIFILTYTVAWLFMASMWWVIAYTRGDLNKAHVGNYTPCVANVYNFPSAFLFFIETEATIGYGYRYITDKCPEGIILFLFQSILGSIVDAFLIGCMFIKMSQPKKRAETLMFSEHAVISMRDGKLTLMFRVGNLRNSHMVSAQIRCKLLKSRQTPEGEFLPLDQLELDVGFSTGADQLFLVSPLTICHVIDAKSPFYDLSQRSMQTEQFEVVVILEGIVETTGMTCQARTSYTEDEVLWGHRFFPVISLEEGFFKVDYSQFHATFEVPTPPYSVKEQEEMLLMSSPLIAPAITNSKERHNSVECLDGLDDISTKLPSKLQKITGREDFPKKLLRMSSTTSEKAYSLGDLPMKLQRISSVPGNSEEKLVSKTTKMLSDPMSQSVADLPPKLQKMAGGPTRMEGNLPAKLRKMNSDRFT
T1 sequence (P48548 1-419): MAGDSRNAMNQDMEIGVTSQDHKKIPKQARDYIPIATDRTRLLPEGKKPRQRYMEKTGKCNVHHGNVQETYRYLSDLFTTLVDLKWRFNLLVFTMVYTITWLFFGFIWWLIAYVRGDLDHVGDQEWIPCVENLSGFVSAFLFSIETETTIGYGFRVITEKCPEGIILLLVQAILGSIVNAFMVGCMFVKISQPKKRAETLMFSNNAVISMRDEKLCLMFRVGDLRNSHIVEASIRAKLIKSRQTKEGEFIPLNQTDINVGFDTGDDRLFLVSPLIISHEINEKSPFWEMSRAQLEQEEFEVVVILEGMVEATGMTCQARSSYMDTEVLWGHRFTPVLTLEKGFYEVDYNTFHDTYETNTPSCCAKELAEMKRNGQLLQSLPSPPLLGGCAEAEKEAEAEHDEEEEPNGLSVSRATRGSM
Assay: Kir3.1/3.4 Electrophysiology Method (manual whole-cell patch clamp)
Format: cell-based
Settings: Electrophysiology Method (TABLE 1)
Method: Compound activity against the recombinant G-protein activated inward rectifier current encoded by the heterotetramer Kir3.1/3.4 was assessed using manual whole-cell patch technique. The heterotetramer forms the pore-forming channel that conducts the acetylcholine/adenosine-activated potassium current in the heart.
For whole-cell patch-clamp studies, cells (Human Embryonic Kidney 293 stably transfected with rat Kir3.1/3.4) were seeded onto glass coverslips before recordings were made. Cells were seeded in sterile 30 mm Petri dishes at a density to enable isolated cells to be selected for patch clamp experiments. The dishes were stored in a humidified, gassed (5% CO2) incubator at 37° C. until use.
Whole-cell patch-clamp recordings of membrane currents were made following gigaohm seal formation between the patch electrode and the cell using HEKA EPC-9/10 amplifiers controlled by Pulse Software (Ver8.5x/8.6×/8.7×, HEKA, Germany). Coverslips seeded with cells were placed in a recording chamber mounted on the stage of an inverted microscope. During the experiment, the cell of interest was continuously superfused with bather solution delivered via a cannula placed in close proximity to the cell to enable control of the extracellular solution environment. Only those cells with a current <−500 pA (current at −140 mV) were used for experiments. During experiments, series resistance was compensated by a minimum of 70%.
Electrophysiology voltage-step protocols and analysis of data were performed as follows. Data was sampled at 5 kHz, and filtered with a −3 dB bandwidth of 2.5 kHz. Cells were held at a voltage of −60 mV. Currents were evoked by a depolarising voltage step to +60 mV (100 ms) before a ramp-repolarisation (0.4 V·s^−1) to −140 mV (100 ms) before returning to −60 mV. The command waveform was repeatedly applied every 10 s throughout the experiment. Mean currents during 1-99% of the time at −140 mV were analysed using Pulsefit software (v8.x, HEKA, Germany). The voltage protocol was repeatedly applied to achieve a stable current baseline in bather before the test substance was superfused via the cannula in close proximity to the cell under investigation. The test substance was allowed to equilibrate during which time voltage protocol was repeatedly applied and recorded. On reaching steady-state inhibition, the cell was superfused with an identical bather solution containing zero external potassium chloride (replaced by equimolar NaCl). The identical current measurement was made in the absence of potassium to assess the passive leak at −140 mV. The leak current was subtracted from the control and steady-state drug current values. The percentage inhibition of the leak-subtracted current in the presence of test substance was calculated relative to the control leak-subtracted pre-drug value. Internal patch-pipette solution contained in mM: 110 KCl, 20 NaCl, 0.9 GTPγS, 5 Mg-ATP, 5 EGTA, 10 HEPES, pH7.2 corrected with KOH. The external superfusate composition in mM was: 150 (or 160) NaCl, 10 (or 0) KCl, 3 CaCl2, 1 MgCl, 10 HEPES, pH 7.4 corrected with NaOH.

| Molecule | IC50 [nM] |
| --- | --- |
| CN1CCN(c2nc(N3CCC(CNC4(CO)CCCC4)CC3)c3c(-c4ccccc4)csc3n2)CC1 [Example 113] | 500 to 3000 |
| COCCN1CCN(c2nc(N3CCC(CN(C)C4CCN(C)C4)CC3)c3c(-c4ccccc4)csc3n2)CC1 (centres unmarked) [Example 122] | < 500 |
| COCC1CC2CCC(C1)N2c1nc(OC2CC3CC2CN3)nc2scc(-c3ccccc3)c12 (centres unmarked) [Example 352] | < 500 |
| c1ccc(-c2csc3ncnc(N4CCC(CNC5CCC5)CC4)c23)cc1 [Example 64, N-[[1-(5-phenylthieno[2,3-d]pyrimidin-4-yl)-4-piperidyl]methyl]cyclobutanamine] | < 500 |
| COc1ccccc1-c1csc2ncnc(N3C4CCC3CC(COCCN3CCCC3)C4)c12 (centres unmarked) [Example 362] | < 500 |
| CN(C)S(=O)(=O)c1ccc(-c2csc3ncnc(N4CCC(COCCN5CCCC5)CC4)c23)cc1 [Example 44, N,N-dimethyl-4-[4-[4-(2-pyrrolidin-1-ylethoxymethyl)-1-piperidyl]thieno[2,3-d]pyrimidin-5-yl]benzenesulfonamide] | 500 to 3000 |
| CN(C)CCOCC1CCN(c2nc(N3CCC(C(N)=O)C3)nc3scc(-c4ccccc4)c23)CC1 (centres unmarked) [Example 14, 1-[4-[4-(2-dimethylaminoethyloxymethyl)-1-piperidyl]-5-phenyl-thieno[2,3-d]pyrimidin-2-yl]pyrrolidine-3-carboxamide] | < 500 |
| CN(C)C1CCCN(CC2CCN(c3ncnc4scc(-c5ccc(F)cc5)c34)CC2)C1 (centres unmarked) [Example 79, 1-[[1-[5-(4-fluorophenyl)thieno[2,3-d]pyrimidin-4-yl]-4-piperidyl]methyl]-N,N-dimethyl-piperidin-3-amine] | < 500 |
| c1ccc(-c2csc3ncnc(N4CCC(CNCCC5CC5)CC4)c23)cc1 [Example 103] | < 500 |
| CN1CCC(N(C)CC2CCN(c3nc(NCC4CC4)nc4scc(-c5ccccc5)c34)CC2)C1 (centres unmarked) [Example 119] | < 500 |
| COCC1C[C@H]2CC[C@@H](C1)N2c1nc(OC2CC3CC2CN3)nc2sc(C(=O)N(C)C)c(-c3ccccc3)c12 (stereo partly drawn) [Example 366, 2-(2-azabicyclo[2.2.1]heptan-5-yloxy)-4-[(1S,5R)-3-(methoxymethyl)-8-azabicyclo[3.2.1]octan-8-yl]-N,N-dimethyl-5-phenyl-thieno[2,3-d]pyrimidine-6-carboxamide] | 500 to 3000 |
| CNC(=O)c1sc2ncnc(N3CCC(COCCN4CCCC4)CC3)c2c1C(C)C [Example 134] | 500 to 3000 |
| FC(F)CNCC1CCN(c2ncnc3scc(-c4ccccc4)c23)CC1 [Example 52, 2,2-difluoro-N-[[1-(5-phenylthieno[2,3-d]pyrimidin-4-yl)-4-piperidyl]methyl]ethanamine] | 500 to 3000 |
| c1cc2c(N3C4CCC3COC4)nc(N3CCC(COCCN4CCCC4)CC3)nc2s1 [Example 302] | < 500 |
| CN(C)C(=O)c1sc2ncnc(N3CCC(COCCN4CCCC4)CC3)c2c1-c1cccc(F)c1 [Example 138] | < 500 |
| COCCNc1nc(N2CCC(CN3CCCC(N(C)C)C3)CC2)c2c(-c3ccccc3)csc2n1 (centres unmarked) [Example 124] | < 500 |
| Fc1ccc(-c2csc3ncnc(N4CCC(CNC5CCC5)CC4)c23)cc1 [Example 78, N-[[1-[5-(4-fluorophenyl)thieno[2,3-d]pyrimidin-4-yl]-4-piperidyl]methyl]cyclobutanamine] | 500 to 3000 |
| c1ccc(-c2csc3ncnc(N4C5CCC4CC(COCCN4CCCC4)C5)c23)cc1 (centres unmarked) [Example 286] | < 500 |
| 8-azabicyclo[3.2.1]octan-3-amine [Example 325] | < 500 |
| O=C1CN(CCOCC2CCN(c3ncnc4scc(-c5ccccc5)c34)CC2)CCN1 [Example 28, 4-[2-[[1-(5-phenylthieno[2,3-d]pyrimidin-4-yl)-4-piperidyl]methoxy]ethyl]piperazin-2-one] | 500 to 3000 |
| Fc1ccc(-c2csc3ncnc(N4CCC(CNC5CC5)CC4)c23)cc1 [Example 77, N-[[1-[5-(4-fluorophenyl)thieno[2,3-d]pyrimidin-4-yl]-4-piperidyl]methyl]cyclopropanamine] | 500 to 3000 |
| CCCNCC1CCN(c2ncnc3scc(-c4ccccc4)c23)CC1 [Example 51, N-[[1-(5-phenylthieno[2,3-d]pyrimidin-4-yl)-4-piperidyl]methyl]propan-1-amine] | 500 to 3000 |

Continued, values first:

| IC50 [nM] | Molecule |
| --- | --- |
| < 500 | O[C@H]1CCN(CC2CCN(c3ncnc4scc(-c5ccccc5)c34)CC2)C1 [Example 190] |
| < 500 | NC1CCCN(CC2CCN(c3ncnc4scc(-c5ccccc5)c34)CC2)C1 (centres unmarked) [Example 211] |
| < 500 | NC(=O)C1CCN(c2nc(N3CCC(COCCN4CCOCC4)CC3)c3c(-c4ccccc4)csc3n2)C1 (centres unmarked) [Example 258] |
| 500 to 3000 | COCC1CCN(c2nc(NCCC3CCCN3C)nc3scc(C4CCCCC4)c23)CC1 (centres unmarked) [Example 177] |
| 500 to 3000 | OC1CCN(c2nc(NCCN3CCCC3)nc3scc(-c4ccccc4)c23)C1 (centres unmarked) [Example 189] |
| 500 to 3000 | CC(C)c1csc2ncnc(N3CC4CC3CC4OCCN3CC4CC3CO4)c12 (centres unmarked) [Example 292, 5-[2-[[2-(5-isopropylthieno[2,3-d]pyrimidin-4-yl)-2-azabicyclo[2.2.1]heptan-5-yl]oxy]ethyl]-2-oxa-5-azabicyclo[2.2.1]heptane] |
| 500 to 3000 | NC(=O)[C@@H]1CCN(CCN2CCN(c3ncc4c(-c5ccccc5)csc4n3)CC2)C1 [Example 150] |
| < 500 | CC(C)c1csc2nc(N3CCC(C(N)=O)C3)nc(N3CCC(CN(C)C4CCN(C)C4)CC3)c12 (centres unmarked) [Example 245] |
| < 500 | CN(C)c1nc(N2CCC(COCCN3CCCC3)CC2)nc2scc(-c3ccccc3)c12 [Example 275] |
| 500 to 3000 | O=C1CN(CC2CCN(c3ncnc4scc(-c5ccccc5)c34)CC2)CCN1 [Example 213] |
| < 500 | CN(C)C1CCN(C2CCN(c3ncnc4scc(-c5ccccc5)c34)CC2)CC1 [Example 222] |
| < 500 | O=C(NCCN1CCCC1)C1CCCN(c2ncnc3scc(-c4ccccc4)c23)C1 (centres unmarked) [Example 268] |
| < 500 | c1sc2nc(N3CCC(COCCN4CCCC4)CC3)ncc2c1C1CCCCC1 [Example 283] |
| < 500 | CC(C)c1csc2ncnc(N3CC4CC3CC4OCCN3CCCC3)c12 (centres unmarked) [Example 288] |
| < 500 | c1ccc(-c2csc3ncnc(N4CCC(OCCN5CCCC5)C4)c23)cc1 (centres unmarked) [Example 269] |
| 3000 to 10000 | NC(=O)C1CCN(c2nc(N3CC4CC3CO4)c3c(-c4ccccc4)csc3n2)C1 (centres unmarked) [Example 309] |
| < 500 | NC(=O)[C@@H]1CCCN1CCOCC1C2CN(c3ncnc4scc(-c5ccc(F)cc5)c34)CC12 (some centres unmarked) [Example 277] |
| 500 to 3000 | COCC1CCN(c2nc(CC(=O)N3CCCC3)nc3scc(-c4ccccc4)c23)CC1 [Example 183, 2-[4-[4-(methoxymethyl)-1-piperidyl]-5-phenyl-thieno[2,3-d]pyrimidin-2-yl]-1-pyrrolidin-1-yl-ethanone] |
| < 500 | CC1CN(CC2CCN(c3ncnc4scc(C5CCCCC5)c34)CC2)CC(C)O1 (centres unmarked) [Example 197] |
